The results in this text go back to BindingDB's records for doi:10.1016/S0960-894X(97)00247-3 (1997).

Structures are written as SMILES.

Biological target in the first test: not listed separately
In words: Compound was tested for the Inhibition of human Secretory phospholipase A 2 acyl hydrolysis using a membrane assay; inactive.
Consider `CCCCCCCCCCCCCCCCCCOCC(CCC1CO1)NC(C)=O` (configuration not stated) [N-(1-Octadecyloxymethyl-3-oxiranyl-propyl)-acetamide], for which the IC50 was > 200 µM. Same read-out and setting: as for `CCCCCCCCCCCCCCCCCCOCC(CCSc1ccc(C)cc1)NC(C)=O` (configuration not stated) [N-(1-Octadecyloxymethyl-3-p-tolylsulfanyl-propyl)-acetamide], the figure is > 200 µM; as for `CCCCCCCCCCCCCCCCCCOCC(CCC(C)=O)NC(C)=O` (configuration not stated) [N-(1-Octadecyloxymethyl-4-oxo-pentyl)-acetamide], > 200 µM; as for `CCCCCCCCCCCCCCCCCCOCC(CCCO)NC(C)=O` (configuration not stated) [N-(4-Hydroxy-1-octadecyloxymethyl-butyl)-acetamide], > 200 µM. On to `CCCCCCCCCCCCCCCCCCOCC(CNS(=O)(=O)c1ccc(C)cc1)NC(C)=O` (configuration not stated) [N-[1-Octadecyloxymethyl-2-(toluene-4-sulfonylamino)-ethyl]-acetamide], for which the IC50 was > 200 µM. The same measure, in the same setting: as for `CCCCCCCCCCCCCCCCCCOCC(CC[S+]([O-])c1ccc(C)cc1)NC(C)=O` (configuration not stated) [N-{1-(Octadecyloxymethyl)-3-[(4-methylphenyl)sulfinyl]propyl}acetamide], the figure is > 200 µM.

The target of the next test is Phospholipase A2, membrane associated (group IIA). Kind of test: Compound was tested for the Inhibition of human Secretory phospholipase A 2 acyl hydrolysis using a membrane assay; Inactive.
Regarding `CCCCCCCCCCCCCCCCCCOCC(CCCCO)NC(C)=O` (configuration not stated) [N-(5-Hydroxy-1-octadecyloxymethyl-pentyl)-acetamide], the IC50 is > 200 µM.

Biological target in a further test: not listed separately
In words: Compound was tested for the Inhibition of human Secretory phospholipase A 2 acyl hydrolysis using a membrane assay; inactive. This is another data set of the same source.
For `CCCCCCCCOC[C@H](CO[P@](=O)(O)OCCN)O[P@@](=O)(O)CCCCCCC`, the midpoint of inhibition, the IC50, lay at 1 µM. The same measure, in the same setting: the result for `C=CCCC(COCCCCCCCCCCCCCCCCCC)NC(C)=O` (configuration not stated) [N-(1-Octadecyloxymethyl-pent-4-enyl)-acetamide] reads 8 µM; that for `CCCCCCCCCCCCCCCCCCOCC(CCCC)NC(C)=O` (configuration not stated) [N-(1-Octadecyloxymethyl-pentyl)-acetamide], 60 µM; that for `CCCCCCCCCCCCCCCCCCOCC(CCC(O)CO)NC(C)=O` (configuration not stated) [N-(4,5-Dihydroxy-1-octadecyloxymethyl-pentyl)-acetamide], 8.9 µM.

With `CCCCCCCCCCCCCCCCCCOCC(COCC(F)(F)F)NC(C)=O` (configuration not stated) [N-[1-Octadecyloxymethyl-2-(2,2,2-trifluoro-ethoxy)-ethyl]-acetamide], the IC50 amounted to 100 µM. Still for that read-out and setting: the result for `CCCCCCCCCCCCCCCCCCOCC(CCc1nnn[nH]1)NC(C)=O` (configuration not stated) [N-[1-Octadecyloxymethyl-3-(1H-tetrazol-5-yl)-propyl]-acetamide] reads 0.57 µM; that for `CCCCCCCCCCCCCCCCCCOCC(CCS(=O)(=O)c1ccc(C)cc1)NC(C)=O` (configuration not stated) [N-[1-Octadecyloxymethyl-3-(toluene-4-sulfonyl)-propyl]-acetamide], 50 µM. `CCCCCCCCCCCCCCCCCCOCC(CC[S+](C)[O-])NC(C)=O` (configuration not stated) [N-[1-[(Octadecyloxy)methyl]-3-(methylsulfinyl)propyl]acetamide] had an IC50 of 60 µM. In turn, `CCCCCCCCCCCCC(=O)NC(COCCC)COP(=O)(O)OCCO` (configuration not stated) [Phosphoric acid 2-hydroxy-ethyl ester 3-propoxy-2-tridecanoylamino-propyl ester] registered an IC50 of 1 µM. Still for that read-out and setting: as for `CCCCCCCCCCCCC(=O)NC(CCCC)CCc1nnn[nH]1` (configuration not stated) [Tridecanoic acid {1-[2-(1H-tetrazol-5-yl)-ethyl]-pentyl}-amide], the figure is 6.6 µM.
